Assay [1] has as its system HBV. Description: Humanized mouse model of HBV infection in human-murine liver chimeric mice. Particulars: n=6. More on the design: unit not given here. It counts as in vivo, FRG KO mice. The protocol:
(asterisks), the group treated with illustrative compound 46 at 3 mg/kg p.o. q.d. (asterisks), the group treated with illustrative compound 46 at 30 mg/kg p.o. q.d. (filled squares), the group treated with illustrative compound 44 at 1 mg/kg p.o. q.d. (crosses), and the group treated with illustrative compound 44 at 10 mg/kg p.o. q.d. (filled circles).
Six to ten weeks old male or female FRG KO mice (Fah-/-/Rag2-/-/Il2rg-/-triple knock-out - Yecuris Corporation P.O. Box 4645, Tualatin, OR 97062, USA) are used. They are provided with filtered tap water and standard chow ad libitum and maintained at 22 ± 2°C in 55 ± 10% humidity on a 12h light/dark cycle.
Each mouse is repopulated by intra splenic injection of 1 to 2 10^6 human hepatocytes (Life Technologies ref HMCS2SA). To allow a progressive and efficacious repopulation, drinking water is regularly supplemented with Nitisinone (Yecuris, lot TNAK0002). The repopulation rate is controlled by hAlb dosage in serum (Euromedex ref E88-129). About 3 to 4 months after the human hepatocyte injection, mice for which repopulation is successful reach an hAlb level >1g/L and can be used for HBV infection.
The test compounds for p.o administration are formulated in Solutol at 2% (Sigma : Kolliphor hS15 12966-1kg lot BCBM0868V) and methylcellulose 0.5% at 98%
Each mouse is injected with HBV-2015 batch ([…]) with an inoculum of 1.38 10^8 GE HBV (0.2 mL) via tail vein.
Six to seven weeks after infection, blood is sampled under isoflurane anesthesia by retro-orbital puncture. HBsAg is dosed in serum by Elisa assay (Immunodiagnostic, ref HBSAG EIA). HBV DNA level is measured in the mice serum using qPCR (SYBR green). Only mice reaching HBsAg level above 1000UI/mL are kept and randomized.
Treatment is given for 5 weeks according to body weight.
Body weight is recorded every week.
Between Day 7 and Day 11, a steady state PK is performed with sampling of blood under isoflurane anesthesia by retro-orbital puncture at T=0, 1h, 3h, 6h post treatment. Plasma are frozen before decontamination with ethanol absolute 80% and transfer to bioanalysis laboratory for compound dosage by LCMS-MS.
At […], D8, D15, D22 and D28, blood is sampled under isoflurane anesthesia by retro-orbital puncture. To follow compounds efficacy, HBsAg is dosed in serum by Elisa assay (Immunodiagnostic, ref HBSAG EIA) and HBV DNA level is measured in serum using qPCR (SYBR green).
After 5 weeks of treatment, mice are euthanized 2 hours after the last dosing for liver and blood collection.
In blood HBsAg is measured by Elisa assay, HBV DNA by qPCR and compound level by LCMS-MS.
In liver HBV DNA is measured by qPCR, compound level by LCMS-MS, pgRNA by RT-qPCR, HBcAg by immunohistochemistry (Dako ref B0586).
When subjected to this protocol, the following results for illustrative compounds of the invention are obtained. Table VII. Infected mice HBsAg blood level variation

For assay [2], the system named is HBV. The description is as above. More on the design: unit not given here. It counts as in vivo, FRG KO mice. As to conditions: D1, mean, n=6.

With `COCCCOc1cc2c(cc1F)-c1c(cc(C(=O)O)c(=O)n1C1CC1)[C@H](C(C)C)O2` [Compound 44, (5S)-1-cyclopropyl-9-fluoro-5-isopropyl-8-(3-methoxypropoxy)-2-oxo-5H-chromeno[4,3-b]pyridine-3-carboxylic acid], the “Infected mice HBsAg blood level” value in the assay with HBV [1] (1 mg/kg p.o q.d, D1, mean) is given as 4.5; in the assay on HBV [1] (1 mg/kg p.o q.d, D8, mean) it was 3.6; in the assay with HBV [1] (1 mg/kg p.o q.d, D15, mean), 3.5; in the assay with HBV [1] (1 mg/kg p.o q.d, D22, mean) it was 3.5; in the assay with HBV [1] (1 mg/kg p.o q.d, D28, mean) it was 3.6; in the assay with HBV [1] (10 mg/kg p.o q.d, D1, mean), 4.4. In addition, the “Infected mice HBsAg blood level” value with HBV [1] (10 mg/kg p.o q.d, D8, mean) is 3.4; in the assay on HBV [1] (10 mg/kg p.o q.d, D15, mean), 3.5; in the assay with HBV [1] (10 mg/kg p.o q.d, D22, mean) it was 3.4; in the assay with HBV [1] (10 mg/kg p.o q.d, D28, mean), 3.4.
For the compound `COCCCOc1cc2c(cc1Cl)-c1c(cc(C(=O)O)c(=O)n1C1CC1)[C@H](C1(C)COC1)O2` [Compound 46, (5R)-9-chloro-1-cyclopropyl-8-(3-methoxypropoxy)-5-(3-methyloxetan-3-yl)-2-oxo-5H-chromeno[4,3-b]pyridine-3-carboxylic acid], the “Infected mice HBsAg blood level” value in the assay with HBV [1] (0.3 mg/kg p.o q.d, D8, mean) is 3.7; in the assay with HBV [1] (0.3 mg/kg p.o q.d, D15, mean) it was 3.8; in the assay with HBV [1] (0.3 mg/kg p.o q.d, D22, mean) it was 3.9; in the assay on HBV [1] (0.3 mg/kg p.o q.d, D28, mean), 3.7; in the assay on HBV [1] (3 mg/kg p.o q.d, D8, mean), 3.4; in the assay on HBV [1] (3 mg/kg p.o q.d, D15, mean), 3.4. In addition, the “Infected mice HBsAg blood level” value in the assay on HBV [1] (3 mg/kg p.o q.d, D22, mean) is 3.4; in the assay on HBV [1] (3 mg/kg p.o q.d, D28, mean), 3.4; in the assay with HBV [1] (30 mg/kg p.o q.d, D1, mean), 4.4; in the assay on HBV [1] (30 mg/kg p.o q.d, D8, mean) it was 3.5; in the assay with HBV [1] (30 mg/kg p.o q.d, D15, mean) it was 3.5; in the assay with HBV [1] (30 mg/kg p.o q.d, D22, mean) it was 3.4. For the same compound, the “Infected mice HBsAg blood level” value is 3.5 in the assay with HBV [1] (30 mg/kg p.o q.d, D28, mean); 4.4 with HBV [2] (0.3 mg/kg p.o q.d); 4.4 in the assay on HBV [2] (3 mg/kg p.o q.d).

The values above are taken from patent publication EP3720857B1, “2-OXO-5H-CHROMENO[4,3-B]PYRIDINES FOR USE IN THE TREATMENT OF HEPATITIS B” (Galapagos NV, priority 2017, dated 2019).
